Experiments:
Assay type in all cases: cell-based
[1] = tested on: human sebaceous glands; assay: Total lipid content of micro-dissected ex vivo human sebaceous glands (organ culture); conditions: extract 0.3 ppm, Capsaicin 5 μM (=1.5 ppm), lipids normalized to proteins
Description: Organ culture of human sebaceous glands micro-dissected from human skin explants was performed to evaluate the modulatory activity of Tetraselmis suecica extract prepared according to the description given in Example 1 on the sebum level. The extract is employed in the dried form. After removal of the epidermis of the full thickness skin sample, the sebaceous glands were carefully removed using micro-scissors and scalpel. The micro-dissected sebaceous glands were then pooled in groups of 8 and cultured up to day 6 in a 24 well plate immersed in 500 μl of modified Williams' E medium. After 24 hours of acclimation the culture medium was changed and substituted with the medium containing the extract to be tested. The medium was renewed at day 3 and 5 of culture. At day 6 the glands were collected and used for the quantification of lipids and proteins. […] To do so, each sebaceous glands group was homogenized in 100 μl of isopropyl alcohol to extract lipids and let the proteins undissolved. After centrifugation the supernatant containing the extracted sebum was collected and analyzed. The remaining pellet was dried using a vacuum dry evaporator and then minced in presence of 50 μl of protein lysis buffer. After an appropriate incubation time, this extractive mixture was centrifuged, and the supernatant was collected and analyzed. The lipids dissolved in isopropyl alcohol and the proteins dissolved in the lysis buffer were quantified by infrared spectroscopy using a Direct Detect IR Spectrometer (Millipore). The total lipid amount was obtained by normalizing the quantified lipids upon the quantified proteins (i.e. mg of lipids/mg of proteins). The amounts of normalized lipids, i.e. the sebum produced by each group of sebaceous glands, obtained from the treated groups was compared to that of the untreated control group and the modulatory activity was calculated in percentage. […] For statistical analysis, differences among groups were evaluated by one-way anova with permutation test followed by Dunnett's permutation test. […]

[2] = tested on: human sebaceous glands; assay: Viability test (resazurin) of micro-dissected human sebaceous glands
Description: To better understand the response to the extract, a viability test was performed in parallel at day 1 and day 6 of organ culture. Resazurin was added to the wells (1:11) and let incubate for 2 hours. At the end of the incubation an aliquot of the medium was read with a fluorometer (excitation: 560 nm, emission: 590 nm). The medium was then replaced with normal medium for 2 hours in order to eliminate residual resazurin. After this the medium was replaced again with medium containing the test samples. The viability in each well was measured as the difference in percentage between day 6 and day 1.
The same experimental set-up as described in Example 3 was used to evaluate the combination of Tetraselmis suecica extract and niacinamide for synergistic activity.

[3] = tested on: human sebaceous glands; assay: Synergistic effect of Tetraselmis suecica extract and niacinamide on total lipid content of ex vivo human sebaceous glands (Kull's equation); conditions: Donor 1 (Example 4); 0.3 ppm extract, 100 ppm niacinamide, or 0.15 ppm extract + 50 ppm niacinamide

With `COc1cc(CNC(=O)CCCC/C=C/C(C)C)ccc1O` [Capsaicin] the “Reduction of lipids at day 6 versus untreated” value (“Reduction of lipids” for short) ([1]; Donor 1) was 11%, the “Reduction of lipids” value ([1]; Donor 2) was 28% and the “Reduction of lipids” value ([1]; Donor 3) was 14%. It also gave a Viability ([2]; Donor 1, day 6 versus day 1, extract 0.3 ppm, Capsaicin 5 μM (1.5 ppm), untreated 93) of 92%, a Viability ([2]; Donor 2, day 6 versus day 1, extract 0.3 ppm, Capsaicin 5 μM (1.5 ppm), untreated 100) of 99% and a Viability ([2]; Donor 3, day 6 versus day 1, extract 0.3 ppm, Capsaicin 5 μM (1.5 ppm), untreated 81) of 85%.
With `NC(=O)c1cccnc1` [niacinamide, Niacinamide] the “Reduction of lipids” value [3] was 6% and the Viability ([2]; Donor 1 (Example 4), 0.3 ppm extract, 100 ppm niacinamide, or 0.15 ppm extract + 50 ppm niacinamide, untreated 81) was 78%.

Reference: patent US20220175859A1, “Tetraselmis Extract” (SYMRISE AG, priority 2018, published 2022)
